Assay results taken from patent publication US20240351997A1, “NOVEL PARP7 INHIBITOR AND USE THEREOF” (SHANGHAI QILU PHARMACEUTICAL RESEARCH AND DEVELOPMENT …, priority 2021, published 2024).

Biological target: PARP7 (Homo sapiens (Human), UniProt Q7Z3E1)
Assay: In vitro enzymology experiment of PARP7 (enzymatic inhibition)
Format: biochemical
Description: II. In Vitro Enzymology Experiment of PARP2, 3, 5A, 5B, 7, 12, and 15
1. Preparation of 384-well histone-coated plate: 25 μL of histone solution was added to each well, and the plate was incubated overnight at 4° C.
2. Preparation of PBST buffer, blocking buffer, and assay buffer
3. The 384-well histone-coated plate was washed three times with PBST buffer. The plate was blocked by 50 μL of blocking buffer for 1 hour at room temperature. The plate was then washed three times with PBST buffer.
2000× compound was prepared in a 96-well source plate. 50 nL of the compound was transferred from the source plate to a 96-well intermediate plate, and 39.95 μL of assay buffer was added to each well. The plate was shaken well and centrifuged at 1000 rpm for 1 minute.
5 μL of compound DMSO solution was transferred to each well.
An enzyme mixture was incubated at 25° C. for 10 minutes.
10 μL of the enzyme mixture was added, and incubated with the compound at room temperature for 10 minutes.
10 μL of assay buffer was added to the negative control well of the assay plate.
The plate was then washed three times with PBST buffer.
25 μL of Stre-HRP was added.
The plate was incubated at room temperature for 1 hour and washed three times with PBS buffer.
25 μL of QuantaRed Enhancer mix was added. The plate was incubated for 10 minutes.
2.5 μL of QuantaRed Stop Solution was added to terminate the peroxidase reaction, and the plate was shaken for 10 to 30 seconds.
7. Paradigm was used to read the plate immediately to detect the readings at Ex550/Em620.
Using equation (1) to fit the data in Excel to obtain inhibition values
Using equation (2) to fit the data in XL-Fit to obtain IC50 values
Y is the percentage of inhibition, and X is the compound concentration.

Sequence of PARP7 (Q7Z3E1 whole entry): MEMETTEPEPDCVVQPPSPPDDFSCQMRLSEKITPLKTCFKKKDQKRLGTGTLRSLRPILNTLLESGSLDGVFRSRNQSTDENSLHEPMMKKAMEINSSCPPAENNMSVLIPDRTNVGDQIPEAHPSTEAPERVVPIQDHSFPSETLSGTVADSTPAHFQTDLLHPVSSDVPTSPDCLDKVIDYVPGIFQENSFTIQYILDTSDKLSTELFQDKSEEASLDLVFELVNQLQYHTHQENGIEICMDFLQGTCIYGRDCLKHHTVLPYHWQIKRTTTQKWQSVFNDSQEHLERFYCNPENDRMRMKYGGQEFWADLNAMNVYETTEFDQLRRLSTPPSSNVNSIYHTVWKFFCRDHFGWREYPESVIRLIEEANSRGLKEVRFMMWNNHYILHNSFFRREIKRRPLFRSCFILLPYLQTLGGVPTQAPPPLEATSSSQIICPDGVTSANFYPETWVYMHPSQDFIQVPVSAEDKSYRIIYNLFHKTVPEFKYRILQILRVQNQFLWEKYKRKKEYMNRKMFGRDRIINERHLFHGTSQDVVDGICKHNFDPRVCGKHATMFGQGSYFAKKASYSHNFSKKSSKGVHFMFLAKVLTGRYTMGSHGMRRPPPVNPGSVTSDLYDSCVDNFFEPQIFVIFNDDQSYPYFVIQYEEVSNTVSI

SMILES | IC50 [nM]
C[C@@H](Cc1c[nH]c(=O)c(C(F)(F)F)c1)OC(=O)N1CCN(c2ncc(C(F)(F)F)cn2)C[C@@H]1CO [Example 78, (S)-1-(6-Oxo-5-(trifluoromethyl)-1,6-dihydropyridin-3-yl)propan-2-yl (R)-2-(hydroxymethyl)-4-(5-(trifluoromethyl)pyrimidin-2-yl)piperazine-1-carboxylate] | 1.4
C[C@@H](Cc1c[nH]c(=O)c(C(F)(F)F)c1)OC(=O)N1CCN(c2ncc(C(F)(F)F)cn2)C[C@H]1CO [Example 79, (S)-1-(6-Oxo-5-(trifluoromethyl)-1,6-dihydropyridin-3-yl)propan-2-yl (S)-2-(hydroxymethyl)-4-(5-(trifluoromethyl)pyrimidin-2-yl)piperazine-1-carboxylate] | 0.68
Cc1c(C[C@H](C)OC(=O)N2CCN(c3ncc(C(F)(F)F)cn3)CC2)c[nH]c(=O)c1C(F)(F)F [Example 81, (S)-1-(4-Methyl-6-oxo-5-(trifluoromethyl)-1,6-dihydropyridin-3-yl)propan-2-yl 4-(5-(trifluoromethyl)pyrimidin-2-yl)piperazine-1-carboxylate] | 0.75
CC(OC[C@@H]1CCCN1c1c[nH]c(=O)c(C(F)(F)F)c1)C(=O)N1CCN(c2ncc(C(F)(F)F)cn2)CC1 (stereo partly drawn) [Example 83] | 1.38
C[C@@H](Cc1c[nH]c(=O)c(C(F)(F)F)c1)OC(=O)N1CCN(c2ccc(C(F)(F)F)cn2)CC1 [Example 86, (S)-1-(6-Oxo-5-(trifluoromethyl)-1,6-dihydropyridin-3-yl)propan-2-yl 4-(5-(trifluoromethyl)pyridin-2-yl)piperazine-1-carboxylate] | 0.6
C[C@@H]1CN(c2ncc(C(F)(F)F)cn2)CCN1C(=O)O[C@@H](C)Cc1c[nH]c(=O)c(C(F)(F)F)c1 [Example 91, (S)-1-(6-Oxo-5-(trifluoromethyl)-1,6-dihydropyridin-3-yl)propan-2-yl (R)-2-methyl-4-(5-(trifluoromethyl)pyrimidin-2-yl)piperazine-1-carboxylate] | 0.78
O=C(Oc1cccc(-c2c[nH]c(=O)c(C(F)(F)F)c2)c1)N1CCN(c2ncc(C(F)(F)F)cn2)CC1 [Example 95, 3-(6-Oxo-5-(trifluoromethyl)-1,6-dihydropyridin-3-yl)phenyl 4-(5-(trifluoromethyl)pyrimidin-2-yl)piperazine-1-carboxylate] | 0.72
O=C(Cc1cccc(-c2c[nH]c(=O)c(C(F)(F)F)c2)c1)N1CCN(c2ncc(C(F)(F)F)cn2)CC1 [Example 96, 5-(3-(2-Oxo-2-(4-(5-(trifluoromethyl)pyrimidin-2-yl)piperazin-1-yl)ethyl)phenyl)-3-(trifluoromethyl)pyridin-2(1H)-one] | 1.03
C[C@@H](Cc1c[nH]c(=O)c(C(F)(F)F)c1)OC(=O)N1CC=C(c2ccc(C(F)(F)F)cn2)CC1 [Example 98, (S)-1-(6-Oxo-5-(trifluoromethyl)-1,6-dihydropyridin-3-yl)propan-2-yl 5-(trifluoromethyl)-3′,6′-dihydro-[2,4′-bipyridine]-1′(2′H)-carboxylate] | 0.83
C[C@@H](Cc1c[nH]c(=O)c(C(F)(F)F)c1)OC(=O)N1CCC(c2ccc(C(F)(F)F)cn2)CC1 [Example 99, (S)-1-(6-Oxo-5-(trifluoromethyl)-1,6-dihydropyridin-3-yl)propan-2-yl 4-(5-(trifluoromethyl)pyridin-2-yl)piperidine-1-carboxylate] | 0.56
C[C@@H](Cc1c[nH]c(=O)c(C(F)(F)F)c1)OC(=O)N1CCN(c2ncc(C(C)(C)O)cn2)CC1 [Example 100, (S)-1-(6-Oxo-5-(trifluoromethyl)-1,6-dihydropyridin-3-yl)propan-2-yl 4-(5-(2-hydroxypropan-2-yl)pyrimidin-2-yl)piperazine-1-carboxylate] | 0.61

Further lines, results first:

IC50 [nM] | SMILES
1.5 | C[C@@H](Cc1c[nH]c(=O)c(C(F)(F)F)c1)OC(=O)N1CCN(c2ncc(C(F)(F)F)cn2)[C@H](CO)C1 [Example 80, (S)-1-(6-Oxo-5-(trifluoromethyl)-1,6-dihydropyridin-3-yl)propan-2-yl (S)-3-(hydroxymethyl)-4-(5-(trifluoromethyl)pyrimidin-2-yl)piperazine-1-carboxylate]
1.44 | O=C(O[C@H]1CCC[C@H]1c1c[nH]c(=O)c(C(F)(F)F)c1)N1CCN(c2ncc(C(F)(F)F)cn2)CC1 [Example 82, (1S,2S)-2-(6-Oxo-5-(trifluoromethyl)-1,6-dihydropyridin-3-yl)cyclopentyl 4-(5-(trifluoromethyl)pyrimidin-2-yl)piperazine-1-carboxylate]
0.52 | Cc1cnc(N2CCN(C(=O)O[C@@H](C)Cc3c[nH]c(=O)c(C(F)(F)F)c3)CC2)nc1 [Example 84, (S)-1-(6-Oxo-5-(trifluoromethyl)-1,6-dihydropyridin-3-yl)propan-2-yl 4-(5-methylpyrimidin-2-yl)piperazine-1-carboxylate]
0.56 | C[C@@H](Cc1c[nH]c(=O)c(C(F)(F)F)c1)OC(=O)N1CCN(c2ncc(Cl)cn2)CC1 [Example 85, (S)-1-(6-Oxo-5-(trifluoromethyl)-1,6-dihydropyridin-3-yl)propan-2-yl 4-(5-chloropyrimidin-2-yl)piperazine-1-carboxylate]
0.5 | CNC(=O)c1cnc(N2CCN(C(=O)O[C@@H](C)Cc3c[nH]c(=O)c(C(F)(F)F)c3)CC2)nc1 [Example 87, (S)-1-(6-Oxo-5-(trifluoromethyl)-1,6-dihydropyridin-3-yl)propan-2-yl 4-(5-(methylcarbamoyl)pyrimidin-2-yl)piperazine-1-carboxylate]
1.98 | CNC(=O)c1ccc(N2CCN(C(=O)O[C@@H](C)Cc3c[nH]c(=O)c(C(F)(F)F)c3)CC2)cn1 [Example 88, (S)-1-(6-Oxo-5-(trifluoromethyl)-1,6-dihydropyridin-3-yl)propan-2-yl 4-(6-(methylcarbamoyl)pyridin-3-yl)piperazine-1-carboxylate]
1.08 | C[C@@H](Cc1c[nH]c(=O)c(C(F)(F)F)c1)OC(=O)N1CCN(C(=O)C2CC2)CC1 [Example 90, (S)-1-(6-Oxo-5-(trifluoromethyl)-1,6-dihydropyridin-3-yl)propan-2-yl 4-(cyclopropanecarbonyl)piperazine-1-carboxylate]
0.19 | C[C@@H](Cc1c[nH]c(=O)c(C(F)(F)F)c1)OC(=O)N1CCN(c2ncc(C(F)(F)F)cn2)C[C@@H]1C [Example 92, (S)-1-(6-Oxo-5-(trifluoromethyl)-1,6-dihydropyridin-3-yl)propan-2-yl (S)-2-methyl-4-(5-(trifluoromethyl)pyrimidin-2-yl)piperazine-1-carboxylate]
0.68 | C[C@@H]1CN(C(=O)O[C@@H](C)Cc2c[nH]c(=O)c(C(F)(F)F)c2)CCN1c1ncc(C(F)(F)F)cn1 [Example 94, (S)-1-(6-Oxo-5-(trifluoromethyl)-1,6-dihydropyridin-3-yl)propan-2-yl (R)-3-methyl-4-(5-(trifluoromethyl)pyrimidin-2-yl)piperazine-1-carboxylate]
0.86 | C[C@@H](Cc1c[nH]c(=O)c(C(F)(F)F)c1)OC(=O)N1CCN(c2ccc(C(F)(F)F)cc2)CC1 [Example 97, (S)-1-(6-Oxo-5-(trifluoromethyl)-1,6-dihydropyridin-3-yl)propan-2-yl 4-(4-(trifluoromethyl)phenyl)piperazine-1-carboxylate]
